What was measured:
MEFs [1] = experiment: Mitochondrial transmembrane potential (ΔΨm) by FACS using TMRE in MEFs; format: cell-based, mouse
Method: (§1) ROS generation was measured using oxidized, green-fluorescent dihydrocalcein acetoxymethylester (DHC-AM) (Life Technologies) and flow cytometry. Single-cell suspensions of MEFs were prepared and ROS was assessed with 5 μM DHC-AM staining in culture medium for 30 minutes (A. Rohnstock et al., (2007) Toxicol in Vitro 21, 1552-1562). 25 nM of cationic cell permeant dye tetramethylrhodamine ethylester (TMRE; Life Technologies) (R. C. Scaduto, Jr. et al., (1999), Biophysical journal 76, 469-477) were used to measure ΔΨm. Additionally, MitoSox Red and MitoTracker Deep Red (Life Technologies) were used to measure mitochondrial ROS and mitochondrial mass, respectively. Flow cytometry was carried out on an LSRII (BD Biosciences), and FlowJo software (Tree Star) was used for analysis.

Drp1 = experiment: Phosphorylated Drp1 (Drp1 616p) at purified mitochondria, densitometry normalized to Cox IV; format: cell-based; settings: 5′-ppp-RNA 1 μg/ml or GOx (FIG. 14A-B)
Method: To activate MAVS commercially available 5′-ppp-RNA was used at a concentration of 1 μg/ml, which activates RIG-I helicase. As an alternative GOx was used as previously described [Szeto, H. H., Br J Pharmacol, 2014. 171(8): p. 2029-50]. Mitochondria were purified by anti-Tom22 magnetic beads as previously described [Perl, A., et al., Int Rev Immunol, 2004. 23(3-4): p. 293-313]. Changes in the level of Drp1^616p at mitochondria were determined by densitometry, which was normalized to the level of Cox IV (FIG. 14A-B).

MEFs [2] = experiment: ROS generation by FACS using DHC in MEFs; format: cell-based, mouse
Method: as §1

MEFs [3] = experiment: Oxygen consumption rate (OCR), Seahorse XF-24 extracellular flux analyzer, MEFs; format: cell-based, mouse; settings: MAVS-WT MEFs (FIG. 1I, J)
Method: Real-time analysis of OCR and ECAR was performed with an XF-24 Extracellular Flux Analyzer (Seahorse Bioscience). Metabolic profiles were measured under basal conditions in non-buffered DMEM (Sigma) containing 25 mM glucose, 2 mM L glutamine, and 1 mM sodium pyruvate, in response to 1 μM oligomycin, 0.5 μM FCCP, and 1 μM rotenone/1 μM antimycin A (M. B. de Moura et al., (2014) Methods in molecular biology 1105, 589-602). Total ATP was measured with the ATP Lite Kit (Perkin Elmer), and the ATP/ADP ratio was determined using the bioluminescence ADP/ATP Ratio Assay Kit from Sigma.

MAVS [4] = experiment: MAVS expression and oligomerization in the mitochondrial fraction of BMDCs treated with free dye; format: cell-based, mouse; settings: increasing concentrations of free Alx488 dye (FIG. 7G)
MAVS [5] = experiment: MAVS oligomerization in MEFs (semi-denaturing gel electrophoresis, immunoblot, densitometry); format: cell-based, mouse
Method: 5′ triphosphate double-stranded RNA (5′-ppp-dsRNA), a synthetic ligand for RIG-I, was purchased from InVivoGen and used at a concentration of 1 μg/mL. Mitochondria-targeted antioxidant MitoQ and the mitochondria-targeted superoxide generator MitoPQ, were gifts of M. Murphy (G. F. Kelso et al., (2001) The Journal of biological chemistry 276, 4588-4596). The control reagent TPP was purchased from Sigma. Reagents were added to cells at concentrations as indicated. GOx was purchased from Sigma and added to cultured cells at a final concentration of 0.1 U/mL. Iodoacetamide was from Thermo Fisher, and used at a final concentration of 100 μM.
Cultured MEFs or human PBMCs were lysed in a sample buffer containing 2% SDS and insoluble cell fragments were removed by centrifugation. Plasma samples derived from SLE patients were collected and stored at −20° C. until gel electrophoresis. BCA protein assay (Thermo Scientific) was used to determine protein concentrations in all samples were resolved with SDS-PAGE under denaturing conditions. Gels were transferred to PVDF membranes using a Trans-Blot Turbo Transfer System (BioRad).
(§2) SDD-AGE was performed according to a published protocol with minor modifications (Alberti et al., (2009) Cell 137, 146-158). In brief, mitochondria were resuspended in sample buffer (0.5×TBE, 10% glycerol, 2% SDS, and 0.0025% bromophenol blue) and loaded onto a vertical 1.5% agarose gel. After electrophoresis in the running buffer (1×TBE and 0.1% SDS) for 35 min with a constant voltage of 75 V at 4° C., proteins were transferred to PVDF membranes using a Trans-Blot Turbo Transfer System (BioRad) for immunoblotting.
PVDF membranes were blocked in 5% solution of nonfat powdered milk in Tris-buffered saline. Antibodies used were specific for MAVS and Actin (Santa Cruz); RIPK1 and TRAF2 (BD Biosciences); TANK, TRADD, RIG-I, and GAPDH (Cell Signaling); MDAS and COX4 (Abcam), Alexa 488 (Life Technologies), and IRF3 (Thermo Fisher), respectively. Immunoreactive proteins were visualized using HRP-labeled conjugates (Jackson Immuno Research) and developed using Clarity Western ECL substrate (Biorad). Chemiluminescence was detected and recorded using a Biorad Chemidoc instrument. Densitometric measurements were performed in Image Lab image acquisition and analysis software (Biorad).

MEFs [6] = experiment: IFN-I and IL-6 cytokine secretion by ELISA in MEF culture supernatants; format: cell-based, mouse; settings: MAVS-WT MEFs
Method: ELISA was used to measure cytokine concentration in supernatant from cultured MEFs and BMDCs, and in sera of SLE patients and healthy control subjects. For assays, samples were centrifuged and IFN-β and IL-6 levels were measured in triplicate using murine or human ELISA kits according to the manufacturer's instructions. (PBL Biosciences). The fold change in IFN-I or IL-6 cells was calculated by directly comparing mock versus virus or chemical inducer of ROS.

MEFs [7] = experiment: Cell death by FACS using live-dead stain; format: cell-based, mouse; settings: MitoPQ at the doses used (1 to 10 nM) (FIG. 2I)
MAVS [8] = experiment: MAVS oligomerization in human PBMC and plasma (semi-denaturing agarose gel electrophoresis); format: cell-based
Method: MAVS-deficient and matching WT MEFs, gift of Z. J. Chen (Z. J. Chen et al. (2005) Cell 122, 669-682), were maintained in Dulbecco's modified Eagle's medium (DMEM) (Hyclone), supplemented with 10% heat-inactivated fetal calf serum (FCS) (Hyclone), 100 mM L-glutamine (Cellgro Mediatech), and 10,000 units/mL penicillin/10 mg/mL streptomycin sulfate (Life Technologies). C57BL6 or B6; 129-Mavstm1Zjc/J mice (The Jackson Laboratory, Bar Harbor, Me.) were maintained at the University of Vermont under a protocol approved by the Institutional Animal Care and Use Committee. Murine BMDCs were prepared as described by Inaba et al. (K. Inaba et al., (1992) Journal of Experimental Medicine 176, 1693-1702). In brief, cells derived from femur bone marrow were cultured at a density of 5×10^5/mL in 10-cm plates in RPMI 1640 (HyClone), supplemented with 5% heat-inactivated FCS, 100 mmol L-glutamine, 100 mmol sodium pyruvate, 10,000 units/mL penicillin/10 mg/mL streptomycin sulfate, 5×10^−5 mol 2-mercaptoethanol (Sigma, St. Louis, Mo.), and 10 μg/mL GM-CSF (Life Technologies). Human subjects were enrolled under a protocol approved by the University of Vermont Institutional Review Board. Samples from 17 SLE patients fulfilling the American College of Rheumatology diagnostic criteria were studied (E. M. Tan et al., (1982) Arthritis and Rheumatism 25, 1271-1277). 16 out of 17 patients were female, and the age of study participants was 47±3. The disease activity was assessed by the SLE disease activity index (SLEDAI) scores, ranging from 0 to 10 (C. Bombardier et al., (1992) Arthritis and Rheumatism 35, 630-640). Upon informed consent, primary human PBMCs were obtained from heparinized whole-blood samples from SLE patients. Control PBMCs were generated from age-, sex-, and ethnicity-matched healthy subjects. PBMCs were isolated using standard Ficoll gradient centrifugation as previously described (R. Mallone et al., (2011) Clin. and Exp. Immunol. 163, 33-49). Cells were either used immediately to prepare lysates for immunoblotting or cultured at a density of 5×10^5/mL in a 12-well culture plate with RPMI 1640 (HyClone), supplemented with 5% heat-inactivated FCS, 100 mmol L-glutamine, 100 mmol sodium pyruvate, and 10,000 units/mL penicillin/10 mg/mL streptomycin sulfate. Enriched monocytes from PBMCs were used to prepare hDCs using negative magnetic bead selection (Miltenyi), and were subsequently cultivated for 6 d in 10 μg/mL GM-CSF and 500 U/mL IL-4. All cells were maintained in a humidified chamber at 37° C. and 5% CO2.
as §2
PVDF membranes were blocked in 5% solution of nonfat powdered milk in Tris-buffered saline. Antibodies used were specific for MAVS and Actin (Santa Cruz); RIPK1 and TRAF2 (BD Biosciences); TANK, TRADD, RIG-I, and GAPDH (Cell Signaling); MDAS and COX4 (Abcam), Alexa 488 (Life Technologies), and IRF3 (Thermo Fisher), respectively. […] Chemiluminescence was detected and recorded using a Biorad Chemidoc instrument. […]

[9] = Total thiol concentration of PBMC and plasma homogenates; set-up: species or system human
MAVS oligomers = target: T1, MAVS oligomers (Homo sapiens, UniProt Q7Z434); experiment: Membrane lipid-strip blot: interaction of lipids with MAVS oligomers isolated from SLE patients; format: binding; settings: lipid strips exposed to 1 μg/ml MAVS oligomer from SLE patients (FIG. 15B)
T1 construct: The strips were exposed to 1 μg/ml of MAVS oligomer isolated from SLE patients; from tissue; host or cells: SLE patient material, immunoprecipitated with anti-MAVS antibody on protein G magnetic beads
T1 sequence (Q7Z434 whole entry): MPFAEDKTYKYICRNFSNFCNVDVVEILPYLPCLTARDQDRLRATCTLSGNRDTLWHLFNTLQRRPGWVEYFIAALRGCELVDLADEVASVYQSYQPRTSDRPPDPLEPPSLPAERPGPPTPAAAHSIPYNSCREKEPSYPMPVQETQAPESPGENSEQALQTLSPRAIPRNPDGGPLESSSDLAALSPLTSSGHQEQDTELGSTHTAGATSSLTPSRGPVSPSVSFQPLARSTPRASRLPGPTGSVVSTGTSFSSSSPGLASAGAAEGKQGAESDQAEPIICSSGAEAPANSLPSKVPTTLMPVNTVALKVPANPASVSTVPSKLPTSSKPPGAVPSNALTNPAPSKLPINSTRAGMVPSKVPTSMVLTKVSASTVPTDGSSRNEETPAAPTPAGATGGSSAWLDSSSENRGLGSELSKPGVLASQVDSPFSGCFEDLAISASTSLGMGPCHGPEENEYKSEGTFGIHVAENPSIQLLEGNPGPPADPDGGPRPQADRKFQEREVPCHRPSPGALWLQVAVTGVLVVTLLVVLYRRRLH
Method: To assess MAVS oligomer interaction a plate coated with anti-phospholipid antibody was prepared and was later was saturated with purified CL. The same plate was exposed to purified and Alx488 labeled MAVS oligomers from mock or GOx treated healthy controls, or from SLE patients as previously published [Szeto, H. H., Br J Pharmacol, 2014. 171(8): p. 2029-50]. Following washing, fluorescence of captured MAVS oligomers was measured. As a control we used recombinant, purified and Alx488 labeled MAVS monomers. Results are shown in FIG. 15A with data shown as mean±SEM, with results representative of two experiments. […] Tests were performed on membrane lipid-strips (Echelon Biosciences). The strips were exposed to 1 μg/ml of MAVS oligomer isolated from SLE patients. The strips were washed with mild detergent and treated with phospholipase A2 (PLA2).

5′ triphosphate double-stranded RNA [5′-ppp-RNA]
ΔΨm induced by the substance (MEFs [1]; MAVS-WT MEFs, not observed in MAVS-KO (FIG. 1B, 2D)): increased
level of phosphorylated Drp1 at mitochondria after MAVS activation (Drp1): lower levels of phosphorylated Drp1 at mitochondria
ROS after transfection (MEFs [2]; MAVS-WT MEFs, initial 12 h, 1 μg 5′-ppp-RNA (FIG. 1A)): increased
basal OCR versus mock-treated cells (MEFs [3]): significantly lower basal OCR

N=c1ccc2c(-c3ccc(C(=O)O)cc3C(=O)O)c3ccc(N)c(S(=O)(=O)O)c3oc-2c1S(=O)(=O)O [Alx488, Alexa Fluor 488]
MAVS expression or oligomerization with free fluorophore (MAVS [4]): did not lead to increased MAVS expression or oligomerization

C[n+]1ccc(-c2cc[n+](CCCCCCCCCC[P+](c3ccccc3)(c3ccccc3)c3ccccc3)cc2)cc1.[I-].[I-].[I-] [MitoPQ, MitoParaquat]
induction of MAVS oligomerization without viral infection (MAVS [5]; MEFs, substance alone (MitoPQ 1 to 10 nM, FIG. 2H; GOx, FIG. 2A)): MAVS oligomerization
IFN-I secretion induced by the substance (MEFs [6]; not observed in MAVS-KO (FIG. 2E, 2J)): significant increase
IL-6 secretion induced by the substance (MEFs [6]; not observed in MAVS-KO (FIG. 2F, 2K)): significant increase
superoxide within mitochondria / ROS (MEFs [2]; MEFs, MitoPQ 1 to 10 nM (FIG. 2G)): increased amount of superoxide within mitochondria
cell death (MEFs [7]): without causing significant cell death

CCCCCCCCCC[P+](c1ccccc1)(c1ccccc1)c1ccccc1 [dTPP]
MAVS oligomerization after pretreatment (MAVS [5]; MEFs pretreated (100 μM) before GOx or SINV (FIG. 3A)): did not demonstrate reversal of MAVS oligomerization

NC(=O)CI [iodoacetamide]
MAVS oligomers with thiol blocking during homogenization (MAVS [8]; cells homogenized in buffer with 100 μM iodoacetamide after GOx or SINV (FIG. 9)): did not result in a decrease in MAVS oligomers
detection of MAVS oligomers in SLE cells or plasma with thiol blocking (MAVS [8]; iodoacetamide added to SLE PBMC and plasma samples (FIG. 9)): did not decrease the detection of MAVS oligomers
reduction of total thiol concentration, PBMCs ([9]; PBMC homogenates (FIG. 9)): 80%
reduction of total thiol concentration, plasma ([9]; plasma homogenates (FIG. 9)): 94%

OCCS [β-Me, β-mercaptoethanol]
reversal of GOx-induced MAVS oligomerization (MAVS [5]; cell media supplemented with β-Me (FIG. 2A)): reversible
reversal of SINV-induced MAVS oligomerization (MAVS [5]; cell media supplemented with β-Me, SINV infection (FIG. 2A)): only a portion of the MAVS oligomers were reducible
mitochondrial hyperpolarization in GOx-treated cells (MEFs [1]; media supplemented with β-Me, GOx (FIG. 2D)): prevented mitochondrial hyperpolarization
GOx-induced MAVS oligomerization in PBMCs after pretreatment (MAVS [8]; healthy-donor PBMCs pretreated with MitoQ or grown in presence of β-Me, then GOx (FIG. 4A)): MAVS oligomerization did not occur

cardiolipin [CL]
interaction with MAVS oligomers (MAVS oligomers): significant interaction

— patent US10967047B2, “Mitochondrial antiviral-signaling (MAVS) polypeptides and detection and use thereof” (University of Vermont and State Agricultural College, priority 2016, dated 2021)
